Structures are written as SMILES.

For experiment [1], the target named is MAP/microtubule affinity-regulating kinase 3 (Homo sapiens) (UniProt P27448). As to the kind of experiment: Inhibition of human MARK3 at 18.6 nM by HotSpot assay relative to control.
In experiment [2] the target is T1, Serine/threonine-protein kinase 17A (Homo sapiens) (UniProt Q9UEE5).
T1 sequence (whole entry): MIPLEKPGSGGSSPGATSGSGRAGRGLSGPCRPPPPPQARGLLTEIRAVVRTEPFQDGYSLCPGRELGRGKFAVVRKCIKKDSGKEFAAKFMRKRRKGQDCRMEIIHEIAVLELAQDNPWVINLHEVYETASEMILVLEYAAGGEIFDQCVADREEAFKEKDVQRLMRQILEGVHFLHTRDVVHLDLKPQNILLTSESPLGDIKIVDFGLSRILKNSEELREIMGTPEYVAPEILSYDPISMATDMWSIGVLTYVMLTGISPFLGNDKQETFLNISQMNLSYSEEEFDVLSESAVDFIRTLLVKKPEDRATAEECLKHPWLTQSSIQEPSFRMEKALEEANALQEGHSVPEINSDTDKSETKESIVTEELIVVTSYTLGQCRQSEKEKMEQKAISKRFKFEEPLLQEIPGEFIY
As to the kind of experiment: Inhibition of human DRAK1 at 18.6 nM by HotSpot assay relative to control.

The target in experiment [3] is Serine/threonine-protein kinase 33 (Homo sapiens) (UniProt Q9BYT3). The experiment can be described thus: Inhibition of human STK33 at 18.6 nM by HotSpot assay relative to control.
Experiment [4] deals with Vascular endothelial growth factor receptor 1 (Homo sapiens) (UniProt P17948). As to the kind of experiment: Inhibition of human FLT1 at 1.82 nM by HotSpot assay relative to control.
Experiment [5] deals with T2, Serine/threonine-protein kinase STK11 (Homo sapiens) (UniProt Q15831).
T2 sequence (whole entry): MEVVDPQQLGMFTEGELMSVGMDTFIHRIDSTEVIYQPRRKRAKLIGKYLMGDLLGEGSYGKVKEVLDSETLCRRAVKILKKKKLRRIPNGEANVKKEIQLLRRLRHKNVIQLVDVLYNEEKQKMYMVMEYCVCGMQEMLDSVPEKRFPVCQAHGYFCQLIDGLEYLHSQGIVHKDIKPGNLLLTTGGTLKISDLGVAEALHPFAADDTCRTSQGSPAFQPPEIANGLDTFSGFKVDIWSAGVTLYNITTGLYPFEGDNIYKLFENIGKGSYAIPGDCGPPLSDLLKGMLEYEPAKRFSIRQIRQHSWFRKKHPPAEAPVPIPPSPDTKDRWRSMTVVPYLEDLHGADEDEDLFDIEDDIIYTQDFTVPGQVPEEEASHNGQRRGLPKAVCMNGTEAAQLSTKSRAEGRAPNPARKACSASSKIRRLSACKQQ
The experiment can be described thus: Inhibition of human LKB1 at 1.82 nM by HotSpot assay relative to control.

The target in experiment [6] is T3, Tyrosine-protein kinase Tec (Homo sapiens) (UniProt P42680).
T3 sequence (whole entry): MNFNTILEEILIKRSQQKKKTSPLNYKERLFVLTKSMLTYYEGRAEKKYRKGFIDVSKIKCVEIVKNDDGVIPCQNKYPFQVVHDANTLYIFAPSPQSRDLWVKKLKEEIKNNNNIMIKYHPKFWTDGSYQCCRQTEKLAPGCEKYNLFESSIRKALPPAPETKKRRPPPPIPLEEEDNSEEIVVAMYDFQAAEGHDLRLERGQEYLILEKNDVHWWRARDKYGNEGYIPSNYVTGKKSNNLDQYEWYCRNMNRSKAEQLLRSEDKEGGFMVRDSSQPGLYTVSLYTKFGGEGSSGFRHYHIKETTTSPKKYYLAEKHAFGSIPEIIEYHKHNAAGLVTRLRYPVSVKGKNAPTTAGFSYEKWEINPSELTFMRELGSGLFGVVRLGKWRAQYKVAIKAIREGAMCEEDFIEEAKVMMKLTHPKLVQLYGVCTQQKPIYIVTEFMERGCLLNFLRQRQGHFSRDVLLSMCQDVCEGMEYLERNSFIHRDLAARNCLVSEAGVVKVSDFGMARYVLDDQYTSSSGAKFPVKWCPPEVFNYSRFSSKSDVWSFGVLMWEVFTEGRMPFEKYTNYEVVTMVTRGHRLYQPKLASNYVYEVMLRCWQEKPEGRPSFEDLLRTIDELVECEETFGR
As to the kind of experiment: Inhibition of human TEC at 1.82 nM by HotSpot assay relative to control.

Experiment [7] concerns the target Myosin light chain kinase, smooth muscle (Homo sapiens) (UniProt Q15746). As to the kind of experiment: Inhibition of human MYLK at 1.82 nM by HotSpot assay relative to control.
In experiment [8] the target is T4, Muscle, skeletal receptor tyrosine-protein kinase (Homo sapiens) (UniProt O15146).
T4 sequence (whole entry): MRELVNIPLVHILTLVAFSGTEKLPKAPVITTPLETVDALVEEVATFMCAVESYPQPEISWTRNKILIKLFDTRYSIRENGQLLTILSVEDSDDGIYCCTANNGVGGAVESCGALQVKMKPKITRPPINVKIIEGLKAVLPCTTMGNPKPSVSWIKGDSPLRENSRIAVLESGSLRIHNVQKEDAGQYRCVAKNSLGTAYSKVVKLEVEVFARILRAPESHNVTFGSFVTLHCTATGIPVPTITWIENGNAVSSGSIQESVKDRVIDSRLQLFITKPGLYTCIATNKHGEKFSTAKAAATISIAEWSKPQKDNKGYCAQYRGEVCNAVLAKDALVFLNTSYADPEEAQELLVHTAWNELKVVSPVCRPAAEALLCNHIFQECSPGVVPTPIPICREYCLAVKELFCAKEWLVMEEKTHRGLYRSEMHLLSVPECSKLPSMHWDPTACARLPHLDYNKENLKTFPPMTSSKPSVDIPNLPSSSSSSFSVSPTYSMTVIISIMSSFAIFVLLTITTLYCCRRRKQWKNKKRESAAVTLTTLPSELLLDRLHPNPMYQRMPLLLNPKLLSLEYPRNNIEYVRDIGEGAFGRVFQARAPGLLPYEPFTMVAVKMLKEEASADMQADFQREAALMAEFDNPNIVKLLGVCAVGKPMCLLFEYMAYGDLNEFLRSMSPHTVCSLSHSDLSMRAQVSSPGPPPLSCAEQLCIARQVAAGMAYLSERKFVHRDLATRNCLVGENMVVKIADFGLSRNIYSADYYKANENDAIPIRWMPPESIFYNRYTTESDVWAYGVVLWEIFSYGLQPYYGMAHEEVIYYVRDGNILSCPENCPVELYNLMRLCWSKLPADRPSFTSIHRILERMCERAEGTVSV
As to the kind of experiment: Inhibition of human MUSK at 1.82 nM by HotSpot assay relative to control.

The target of experiment [9] is MAP kinase-activated protein kinase 2 (Homo sapiens) (UniProt P49137). As to the kind of experiment: Inhibition of human MAPKAPK2 at 1.82 nM by HotSpot assay relative to control.
Chain of MAP kinase-activated protein kinase 2 (Homo sapiens) (P49137 whole entry, looked up): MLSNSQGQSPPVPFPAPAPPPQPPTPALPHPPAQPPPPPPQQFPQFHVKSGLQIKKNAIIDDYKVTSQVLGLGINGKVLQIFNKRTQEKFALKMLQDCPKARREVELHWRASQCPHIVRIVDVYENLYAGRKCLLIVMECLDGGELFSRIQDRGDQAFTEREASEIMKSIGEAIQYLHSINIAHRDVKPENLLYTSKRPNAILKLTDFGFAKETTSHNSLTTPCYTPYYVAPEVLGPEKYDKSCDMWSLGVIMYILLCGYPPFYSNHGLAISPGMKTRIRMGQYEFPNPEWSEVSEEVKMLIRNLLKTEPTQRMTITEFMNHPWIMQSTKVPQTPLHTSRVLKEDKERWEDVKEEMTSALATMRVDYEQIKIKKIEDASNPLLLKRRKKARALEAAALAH

Chain of Vascular endothelial growth factor receptor 1 (Homo sapiens) (P17948 whole entry): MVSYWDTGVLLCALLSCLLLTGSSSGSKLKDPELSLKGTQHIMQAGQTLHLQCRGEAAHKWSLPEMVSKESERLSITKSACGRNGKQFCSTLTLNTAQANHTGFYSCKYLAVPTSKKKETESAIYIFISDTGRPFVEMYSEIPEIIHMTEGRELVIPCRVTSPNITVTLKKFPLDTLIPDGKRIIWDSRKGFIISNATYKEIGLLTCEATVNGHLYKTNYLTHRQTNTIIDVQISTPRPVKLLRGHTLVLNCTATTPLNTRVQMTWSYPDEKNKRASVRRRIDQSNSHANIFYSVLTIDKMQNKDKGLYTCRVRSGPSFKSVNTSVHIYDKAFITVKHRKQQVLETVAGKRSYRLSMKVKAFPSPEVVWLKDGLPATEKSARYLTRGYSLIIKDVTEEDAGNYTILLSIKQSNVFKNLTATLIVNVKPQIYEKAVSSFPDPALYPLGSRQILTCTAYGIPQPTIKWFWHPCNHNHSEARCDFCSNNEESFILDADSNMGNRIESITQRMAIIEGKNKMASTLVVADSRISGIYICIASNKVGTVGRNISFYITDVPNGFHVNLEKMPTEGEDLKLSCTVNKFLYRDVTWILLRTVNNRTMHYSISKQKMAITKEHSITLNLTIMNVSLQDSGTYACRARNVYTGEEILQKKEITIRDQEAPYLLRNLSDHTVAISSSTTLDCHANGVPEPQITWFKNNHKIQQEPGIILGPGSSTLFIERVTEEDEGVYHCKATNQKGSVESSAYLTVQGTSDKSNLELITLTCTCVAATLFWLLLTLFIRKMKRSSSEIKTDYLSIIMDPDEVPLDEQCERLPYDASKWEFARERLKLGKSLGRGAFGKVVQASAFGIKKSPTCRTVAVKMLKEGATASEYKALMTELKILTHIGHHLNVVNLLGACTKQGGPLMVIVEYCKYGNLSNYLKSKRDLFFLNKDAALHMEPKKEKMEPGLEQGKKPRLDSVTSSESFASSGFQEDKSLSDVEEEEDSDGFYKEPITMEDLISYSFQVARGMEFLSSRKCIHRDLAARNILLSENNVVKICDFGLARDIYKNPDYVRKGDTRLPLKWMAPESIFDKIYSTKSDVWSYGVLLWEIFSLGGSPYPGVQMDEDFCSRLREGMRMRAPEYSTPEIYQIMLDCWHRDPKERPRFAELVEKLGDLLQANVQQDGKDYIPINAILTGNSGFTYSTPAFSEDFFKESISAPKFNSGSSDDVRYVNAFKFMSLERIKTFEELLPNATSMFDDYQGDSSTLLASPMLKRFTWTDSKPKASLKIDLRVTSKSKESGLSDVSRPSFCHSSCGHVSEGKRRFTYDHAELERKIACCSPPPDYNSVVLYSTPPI
Chain of Serine/threonine-protein kinase 33 (Homo sapiens) (Q9BYT3 whole entry, looked up): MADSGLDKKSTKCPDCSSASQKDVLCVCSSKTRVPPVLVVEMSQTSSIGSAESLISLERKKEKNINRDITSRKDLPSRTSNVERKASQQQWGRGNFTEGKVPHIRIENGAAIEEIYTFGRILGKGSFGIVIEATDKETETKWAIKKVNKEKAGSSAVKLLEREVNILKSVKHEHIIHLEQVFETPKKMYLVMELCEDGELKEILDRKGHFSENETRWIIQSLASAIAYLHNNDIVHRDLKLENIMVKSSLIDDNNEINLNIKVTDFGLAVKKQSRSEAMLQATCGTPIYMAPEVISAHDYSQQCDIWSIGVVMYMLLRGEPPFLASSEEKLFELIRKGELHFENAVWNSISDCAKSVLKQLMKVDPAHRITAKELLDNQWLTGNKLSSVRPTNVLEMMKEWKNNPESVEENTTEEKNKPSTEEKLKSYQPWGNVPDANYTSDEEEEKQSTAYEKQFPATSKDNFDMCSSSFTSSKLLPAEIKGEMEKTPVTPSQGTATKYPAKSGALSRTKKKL
Chain of MAP/microtubule affinity-regulating kinase 3 (Homo sapiens) (P27448 whole entry, looked up): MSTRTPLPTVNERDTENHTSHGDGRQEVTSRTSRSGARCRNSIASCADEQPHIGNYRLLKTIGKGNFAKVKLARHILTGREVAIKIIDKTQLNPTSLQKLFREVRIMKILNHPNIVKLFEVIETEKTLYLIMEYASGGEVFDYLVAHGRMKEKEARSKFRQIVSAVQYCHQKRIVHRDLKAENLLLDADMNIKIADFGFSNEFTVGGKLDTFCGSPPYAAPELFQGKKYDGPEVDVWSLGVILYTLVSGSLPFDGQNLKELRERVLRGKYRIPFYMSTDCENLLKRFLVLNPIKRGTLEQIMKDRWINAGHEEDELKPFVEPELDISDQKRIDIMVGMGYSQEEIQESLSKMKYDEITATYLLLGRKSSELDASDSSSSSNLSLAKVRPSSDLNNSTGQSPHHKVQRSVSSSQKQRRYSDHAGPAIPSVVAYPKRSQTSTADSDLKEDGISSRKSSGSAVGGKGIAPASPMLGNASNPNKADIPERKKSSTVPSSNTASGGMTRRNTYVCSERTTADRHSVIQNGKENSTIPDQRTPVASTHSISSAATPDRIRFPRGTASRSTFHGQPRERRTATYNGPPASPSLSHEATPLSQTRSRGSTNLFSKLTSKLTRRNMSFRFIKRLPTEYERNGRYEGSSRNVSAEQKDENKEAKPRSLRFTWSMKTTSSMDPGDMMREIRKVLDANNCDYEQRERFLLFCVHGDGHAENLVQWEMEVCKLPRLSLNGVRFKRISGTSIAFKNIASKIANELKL
Chain of Myosin light chain kinase, smooth muscle (Homo sapiens) (Q15746 whole entry): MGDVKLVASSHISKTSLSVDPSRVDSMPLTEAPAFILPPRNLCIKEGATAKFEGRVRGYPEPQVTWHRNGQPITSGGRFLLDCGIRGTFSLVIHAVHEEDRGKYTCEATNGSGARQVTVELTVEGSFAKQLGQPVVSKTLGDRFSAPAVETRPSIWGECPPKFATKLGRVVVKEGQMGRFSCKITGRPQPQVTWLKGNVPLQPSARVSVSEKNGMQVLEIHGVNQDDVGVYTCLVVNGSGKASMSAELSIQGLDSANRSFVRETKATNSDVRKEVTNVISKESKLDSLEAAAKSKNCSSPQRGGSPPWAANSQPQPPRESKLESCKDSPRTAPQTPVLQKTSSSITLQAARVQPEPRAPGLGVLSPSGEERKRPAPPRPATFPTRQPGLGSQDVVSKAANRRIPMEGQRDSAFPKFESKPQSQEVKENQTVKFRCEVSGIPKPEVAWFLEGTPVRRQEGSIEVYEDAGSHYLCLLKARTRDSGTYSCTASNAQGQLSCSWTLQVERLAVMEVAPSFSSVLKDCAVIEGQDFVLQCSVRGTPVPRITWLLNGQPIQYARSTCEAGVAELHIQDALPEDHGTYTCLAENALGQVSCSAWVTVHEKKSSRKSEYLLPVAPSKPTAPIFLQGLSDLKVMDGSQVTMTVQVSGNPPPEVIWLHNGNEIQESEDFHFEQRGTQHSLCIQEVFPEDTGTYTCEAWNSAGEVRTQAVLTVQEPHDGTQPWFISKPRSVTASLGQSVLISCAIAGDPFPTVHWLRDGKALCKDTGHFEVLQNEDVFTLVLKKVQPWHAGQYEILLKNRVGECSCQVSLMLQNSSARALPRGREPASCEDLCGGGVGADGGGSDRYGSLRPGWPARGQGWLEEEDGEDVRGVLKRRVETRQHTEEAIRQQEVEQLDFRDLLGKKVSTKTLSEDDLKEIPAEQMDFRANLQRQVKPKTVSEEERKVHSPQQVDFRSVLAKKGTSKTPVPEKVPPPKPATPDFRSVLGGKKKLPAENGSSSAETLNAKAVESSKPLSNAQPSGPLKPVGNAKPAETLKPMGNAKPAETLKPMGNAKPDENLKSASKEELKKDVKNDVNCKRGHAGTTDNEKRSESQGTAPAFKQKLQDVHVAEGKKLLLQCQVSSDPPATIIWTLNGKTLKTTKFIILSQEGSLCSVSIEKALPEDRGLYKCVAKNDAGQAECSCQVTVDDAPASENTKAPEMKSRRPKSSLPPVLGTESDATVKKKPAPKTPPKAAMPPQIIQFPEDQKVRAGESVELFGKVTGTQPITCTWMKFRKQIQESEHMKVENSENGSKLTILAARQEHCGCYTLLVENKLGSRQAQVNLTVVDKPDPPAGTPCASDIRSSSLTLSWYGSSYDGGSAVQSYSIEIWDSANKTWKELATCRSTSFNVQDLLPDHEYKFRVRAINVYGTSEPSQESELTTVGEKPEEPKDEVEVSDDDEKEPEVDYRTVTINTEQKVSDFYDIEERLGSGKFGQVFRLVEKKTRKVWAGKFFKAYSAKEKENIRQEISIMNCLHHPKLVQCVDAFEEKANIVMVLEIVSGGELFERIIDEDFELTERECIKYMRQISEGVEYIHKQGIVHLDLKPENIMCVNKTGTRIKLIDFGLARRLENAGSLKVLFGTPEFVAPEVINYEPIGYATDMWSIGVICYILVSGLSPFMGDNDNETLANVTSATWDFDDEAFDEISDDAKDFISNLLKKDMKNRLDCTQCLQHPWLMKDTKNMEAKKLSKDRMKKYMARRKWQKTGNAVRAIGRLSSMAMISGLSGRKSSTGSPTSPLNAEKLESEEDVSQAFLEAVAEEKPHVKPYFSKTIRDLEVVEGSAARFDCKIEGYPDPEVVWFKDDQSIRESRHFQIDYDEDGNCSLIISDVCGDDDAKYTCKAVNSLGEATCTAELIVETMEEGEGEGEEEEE

Take `C[C@]1(O)C[C@@H](c2nc(-c3ccc4ccc(-c5ccccc5)nc4c3)c3c(N)nccn32)C1`: the inhibition is 2.43% in experiment [1], 0.05% in experiment [2] and -0.08% in [3].

Take `C[C@@]1(C(=O)Nc2ccc(F)nc2)CCCN1c1nc(Nc2cc(C3CC3)n[nH]2)c2cccn2n1`: the inhibition is -4.89% in experiment [4]; 4.47% in experiment [5]; -3.36% in [6]; 2.24% in experiment [7]; -0.39% in [8]; 0.98% in experiment [9].

A word on the inhibition: it is the relative decrease from the control value, in per cent.

(Values after ChEMBL document CHEMBL5653615 (J Biol Chem, 2013).)
